Assay [1] can be described thus: Iron chelating activity assessed as compound-Fe2+ complex formation after 10 mins by Prussian blue assay.
Assay [2] has as its target T1, Polyunsaturated fatty acid lipoxygenase ALOX15 (Homo sapiens) (UniProt P16050).
T1 sequence (whole entry): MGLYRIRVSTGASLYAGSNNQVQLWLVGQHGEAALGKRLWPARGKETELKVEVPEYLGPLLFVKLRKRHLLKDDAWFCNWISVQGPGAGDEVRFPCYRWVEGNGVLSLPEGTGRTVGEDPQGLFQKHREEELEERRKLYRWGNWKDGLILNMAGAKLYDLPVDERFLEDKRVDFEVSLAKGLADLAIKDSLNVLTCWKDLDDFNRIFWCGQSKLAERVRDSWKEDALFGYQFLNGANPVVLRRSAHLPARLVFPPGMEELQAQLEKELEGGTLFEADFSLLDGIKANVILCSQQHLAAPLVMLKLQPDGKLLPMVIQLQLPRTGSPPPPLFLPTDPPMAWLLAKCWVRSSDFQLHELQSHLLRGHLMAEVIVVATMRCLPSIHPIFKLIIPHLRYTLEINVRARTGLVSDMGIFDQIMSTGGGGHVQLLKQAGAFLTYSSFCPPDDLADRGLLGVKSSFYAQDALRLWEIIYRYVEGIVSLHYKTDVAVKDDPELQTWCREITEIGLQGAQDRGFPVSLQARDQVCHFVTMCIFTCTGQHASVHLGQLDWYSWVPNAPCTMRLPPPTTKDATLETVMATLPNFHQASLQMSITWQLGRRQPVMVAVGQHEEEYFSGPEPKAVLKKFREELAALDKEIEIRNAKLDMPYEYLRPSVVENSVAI
Nature of the assay: Inhibition of 15-LOX (unknown origin) at 500 uM preincubated for 1 mins followed by arachidonic acid substrate addition by spectrophotometric method.

For assay [3], the target named is T2, Polyunsaturated fatty acid 5-lipoxygenase (Homo sapiens) (UniProt P09917).
T2 sequence (whole entry): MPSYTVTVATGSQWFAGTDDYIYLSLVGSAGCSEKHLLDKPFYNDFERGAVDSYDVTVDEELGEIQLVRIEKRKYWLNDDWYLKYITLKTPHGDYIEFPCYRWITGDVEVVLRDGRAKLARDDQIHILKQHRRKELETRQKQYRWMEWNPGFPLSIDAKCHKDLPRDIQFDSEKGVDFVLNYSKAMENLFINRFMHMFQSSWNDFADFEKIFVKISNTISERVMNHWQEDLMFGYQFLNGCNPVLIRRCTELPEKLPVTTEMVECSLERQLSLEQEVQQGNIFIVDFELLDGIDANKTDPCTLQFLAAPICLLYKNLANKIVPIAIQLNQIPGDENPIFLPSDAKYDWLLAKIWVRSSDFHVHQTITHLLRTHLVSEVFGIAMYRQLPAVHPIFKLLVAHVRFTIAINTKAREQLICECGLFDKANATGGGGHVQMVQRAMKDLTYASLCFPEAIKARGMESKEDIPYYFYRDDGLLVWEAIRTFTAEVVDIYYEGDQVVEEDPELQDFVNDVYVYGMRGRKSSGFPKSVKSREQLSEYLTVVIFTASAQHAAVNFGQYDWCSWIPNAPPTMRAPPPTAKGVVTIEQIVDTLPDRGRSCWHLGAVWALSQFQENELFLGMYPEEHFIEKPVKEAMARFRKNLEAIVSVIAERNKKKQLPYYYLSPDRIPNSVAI
Nature of the assay: Inhibition of human 5-LOX at 500 uM preincubated for 10 mins followed by arachidonic acid substrate addition in presence of H2DCFDA by spectrophotometric method.

Assay [4] addresses T3, Prostaglandin E synthase (Homo sapiens) (UniProt O14684).
T3 sequence (whole entry): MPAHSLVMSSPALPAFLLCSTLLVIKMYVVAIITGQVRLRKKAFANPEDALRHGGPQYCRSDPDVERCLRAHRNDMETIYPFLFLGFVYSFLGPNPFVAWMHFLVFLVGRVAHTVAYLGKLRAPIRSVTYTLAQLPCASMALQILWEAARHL
Nature of the assay: Inhibition of mPGES1 (unknown origin) at 500 uM preincubated for 15 mins followed by PGH2 substrate addition and measured after 1 min by EIA relative to control.

Assay [5] deals with Phospholipid hydroperoxide glutathione peroxidase GPX4 (Mus musculus) (UniProt O70325). Nature of the assay: Activation of GPX4 in MEF assessed as increase in […] protection against CHOOH-induced cell death at 200 uM. It is filed as cell-based.
Assay [6] is filed under the species Homo sapiens. Nature of the assay: Activation of recombinant human GPX4 D23A/U46C double mutant expressed in Escherichia coli M15 assessed as increase in oxidized glutathione-mediated oxidation of NADPH to NADP+ using tert-butyl hydroperoxide as substrate preincubated for 5 mins followed by substrate addition measured for 6 mins by glutathione reductase enzyme coupled fluorescence assay relative to GPX4 U46C mutant control.

Assay [7] concerns the target T4, Phospholipid hydroperoxide glutathione peroxidase GPX4 (Homo sapiens) (UniProt P36969).
T4 sequence (whole entry): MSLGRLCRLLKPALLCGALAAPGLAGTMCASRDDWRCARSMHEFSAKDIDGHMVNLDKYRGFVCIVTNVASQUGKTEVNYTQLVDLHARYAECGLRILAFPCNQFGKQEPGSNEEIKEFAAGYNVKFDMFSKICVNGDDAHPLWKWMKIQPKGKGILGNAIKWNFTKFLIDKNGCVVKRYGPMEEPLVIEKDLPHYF
Nature of the assay: Activation of GPX4 in A23187-stimulated human PMN leukocytes assessed as increase in 12-HETE preincubated for 15 mins followed by A23187 addition and measured after 120 mins by LC-MS analysis.

Assay [8] is filed under the species Homo sapiens. Nature of the assay: Activation of recombinant His-tagged human cytosolic GPX4 U46C mutant expressed in Escherichia coli M15 assessed as increase in oxidized glutathione-mediated oxidation of NADPH to NADP+ using tert-butyl hydroperoxide as substrate preincubated for 5 mins followed by substrate addition measured for 6 mins by glutathione reductase enzyme coupled fluorescence assay.

Assay [9] in a line: Zinc chelating activity in presence of ZnSO4 after 10 mins by crystal violet staining based assay.
The species named for assay [10] is Homo sapiens. Nature of the assay: Activation of recombinant human GPX4 D21A/D23A/U46C mutant expressed in Escherichia coli M15 assessed as increase in oxidized glutathione-mediated oxidation of NADPH to NADP+ using tert-butyl hydroperoxide as substrate preincubated for 5 mins followed by substrate addition measured for 6 mins by glutathione reductase enzyme coupled fluorescence assay relative to GPX4 U46C mutant control.

Assay [11] is filed under the species Homo sapiens. Nature of the assay: Activation of recombinant human GPX4 D21A/U46C double mutant expressed in Escherichia coli M15 assessed as increase in oxidized glutathione-mediated oxidation of NADPH to NADP+ using tert-butyl hydroperoxide as substrate preincubated for 5 mins followed by substrate addition measured for 6 mins by glutathione reductase enzyme coupled fluorescence assay relative to GPX4 U46C mutant control.

The source made the active and inactive calls. No cut-off for these calls is given here.

Chain of Phospholipid hydroperoxide glutathione peroxidase GPX4 (Mus musculus) (O70325 whole entry): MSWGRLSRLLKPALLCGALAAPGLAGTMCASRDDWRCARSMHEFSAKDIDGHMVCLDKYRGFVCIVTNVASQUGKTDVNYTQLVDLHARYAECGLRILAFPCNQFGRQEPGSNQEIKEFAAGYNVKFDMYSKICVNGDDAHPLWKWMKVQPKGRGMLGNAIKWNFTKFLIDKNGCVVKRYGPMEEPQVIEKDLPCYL

Turning to `NS(=O)(=O)c1ccc(NC(S)=NCc2ccc(Cl)cc2)cc1`, the outcome in assay [1] and in assay [9] was inactive. The inhibition entry in assay [2] and in assay [3] was “inactive” in each case. In addition, in [4], the inhibition (as a rule, the percentage by which the read-out fell short of the control) worked out at 23%. In [5], the outcome was Active. The EC150 in the assay listed under Homo sapiens [6] was 372 µM; in the assay listed under Homo sapiens [8], 248 µM; in the assay filed under Homo sapiens [10], greater than 1000 µM; in the assay filed under Homo sapiens [11] it was 618 µM. For the same compound, the Activity result (in assay [7]; in the assay filed under Homo sapiens [8]) was “Dose-dependent effect” throughout.

For the origin of these results see ChEMBL document CHEMBL4308834, “Novel Allosteric Activators for Ferroptosis Regulator Glutathione Peroxidase 4” (J Med Chem, 2018).
